# In ChEMBL document CHEMBL5257153, “Oxazolidinones as versatile scaffolds in medicinal chemistry” (RSC Med Chem, 2023):
# Assays:
# [1] = tested on: Mycobacterium tuberculosis; assay: Antimycobacterial activity against Mycobacterium tuberculosis assessed as bacterial growth inhibition; type: functional
# [2] = Metabolic stability in mouse microsomes assessed as intrinsic clearance; type: ADME, Microsome
# [3] = Metabolic stability in mouse microsomes assessed as half life; type: ADME, Microsome
# [4] = Metabolic stability in human microsomes assessed as half life; type: ADME, Microsome
# [5] = Metabolic stability in human microsomes assessed as intrinsic clearance; type: ADME, Microsome
# Clostridioides difficile [6] = assay: In vivo Antibacterial activity against Clostridium difficile infected in hamster assessed as survival at 50 mg/kg, sc relative to control; type: functional
# Metaphire posthuma [7] = assay: Anti-helmintic activity at Metaphire posthuma assessed as paralysis induction time; type: functional
# Metaphire posthuma [8] = assay: Anti-helmintic activity at Metaphire posthuma assessed as time of survival; type: functional
# MGC-803 = assay: Anticancer activity against human MGC-803 cells assessed as cell growth inhibition incubated for 48 hrs by MTT assay; type: functional, cell-based; conditions: MGC-803, 48 h
# NCI-H460 = assay: Anticancer activity against human NCI-H460 cells assessed as cell growth inhibition incubated for 48 hrs by MTT assay; type: functional, cell-based; conditions: NCI-H460, 48 h
# L02 [9] = assay: Cytotoxicity against human L02 cells assessed as cell growth inhibition incubated for 48 hrs by MTT assay; type: functional, cell-based; conditions: L02, 48 h
# CNE-2 = assay: Anticancer activity against human CNE-2 cells assessed as cell growth inhibition incubated for 48 hrs by MTT assay; type: functional, cell-based; conditions: CNE-2, 48 h
# SK-OV-3 = assay: Anticancer activity against human SK-OV-3 cells assessed as cell growth inhibition incubated for 48 hrs by MTT assay; type: functional, cell-based; conditions: SK-OV-3, 48 h
# [10] = tested on: Mycobacterium tuberculosis; assay: Antimycobacterial activity against Mycobacterium tuberculosis H37Rv strain assessed as bacterial growth inhibition incubated for 48 hrs by Microplate amar blue assay; type: functional
# [11] = target: T1, Acyl-CoA (8-3)-desaturase (Homo sapiens, UniProt O60427); assay: In vivo inhibition of human Delta 5 desaturase in atherosclerosis mouse model at 3 mg/kg, po relative to control; type: organism-based
# Target sequence in this assay (O60427 whole entry, looked up): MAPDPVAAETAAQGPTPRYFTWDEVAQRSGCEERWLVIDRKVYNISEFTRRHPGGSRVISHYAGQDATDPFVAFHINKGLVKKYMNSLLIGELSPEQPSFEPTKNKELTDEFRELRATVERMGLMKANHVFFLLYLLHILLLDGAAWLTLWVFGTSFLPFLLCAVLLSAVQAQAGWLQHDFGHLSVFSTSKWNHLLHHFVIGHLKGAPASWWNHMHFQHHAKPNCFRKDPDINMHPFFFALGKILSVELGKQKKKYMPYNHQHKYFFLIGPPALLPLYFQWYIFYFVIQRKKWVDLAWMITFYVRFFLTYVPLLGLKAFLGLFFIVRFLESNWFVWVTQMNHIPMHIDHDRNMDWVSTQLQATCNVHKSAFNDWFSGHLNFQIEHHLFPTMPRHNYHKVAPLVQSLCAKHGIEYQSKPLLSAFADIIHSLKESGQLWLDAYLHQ
# [12] = target: T1, Acyl-CoA (8-3)-desaturase; assay: Inhibition of human Delta 5 desaturase (unknown origin) expressed in human HepG2 cells; type: cell-based
# Target sequence in this assay (O60427 whole entry): as the sequence (O60427 whole entry, looked up) above
# [13] = target: T1, Acyl-CoA (8-3)-desaturase; assay: In vivo inhibition of human Delta 5 desaturase in C57BL/6J mouse at 3 mg/kg, po relative to control; type: organism-based
# Target sequence in this assay (O60427 whole entry, looked up): as above
# Kallikrein-6 = Kallikrein-6 (Homo sapiens, UniProt Q92876); assay: Inhibition of KLK6 (unknown origin)
# [14] = AUClast in Sprague-Dawley rat at 15 mg/kg, iv by HPLCLC-MS/MS analysis; type: ADME, organism-based; parameters: dose 15 mg/kg, route iv; conditions: in vivo
# [15] = Inhibition of human LTB4
# [16] = Inhibition of human LTC4
# [17] = tested on: Mycobacterium tuberculosis; assay: Antimycobacterial activity against Mycobacterium tuberculosis H37Rv strain assessed as bacterial growth inhibition by Microplate amar blue assay; type: functional
# [18] = Toxicity in mouse; type: organism-based; conditions: in vivo
# Mus musculus = species: Mus musculus; assay: Anticonvulsant activity in mouse; type: functional
# Rattus norvegicus = species: Rattus norvegicus; assay: Anticonvulsant activity in rat; type: functional
# MCF7 = assay: Anticancer activity against human MCF7 cells assessed as cell growth inhibition incubated for 72 hrs by MTT assay; type: functional, cell-based; conditions: MCF7, 72 h
# HeLa = assay: Anticancer activity against human HeLa cells assessed as cell growth inhibition incubated for 72 hrs by MTT assay; type: functional, cell-based
# L02 [19] = assay: Anticancer activity against human L02 cells assessed as cell growth inhibition incubated for 48 hrs by MTT assay; type: functional, cell-based; conditions: L02, 48 h
# Staphylococcus aureus [20] = assay: Antibacterial activity against methicillin resistant Staphylococcus aureus assessed as bacterial growth inhibition incubated for 18 hrs; type: functional
# Staphylococcus aureus [21] = assay: Antibacterial activity against methicillin sensitive Staphylococcus aureus assessed as bacterial growth inhibition incubated for 18 hrs; type: functional
# HEK293 = assay: Anticancer activity against HEK293 cells assessed as cell growth inhibition incubated for 48 hrs by MTT assay; type: functional, cell-based; conditions: Homo sapiens, HEK293, 48 h
# [22] = target: Aldo-keto reductase family 1 member B1 (Homo sapiens, UniProt P15121); assay: Inhibition of […] (unknown origin)
# [23] = tested on: Mycolicibacterium fortuitum; assay: Antibacterial activity against Mycobacterium fortuitum assessed as bacterial growth inhibition; type: functional
# Mycobacteroides chelonae = assay: Antibacterial activity against Mycobacteroides chelonae assessed as bacterial growth inhibition; type: functional
# Mycobacterium kansasii = assay: Antibacterial activity against Mycobacterium kansasii assessed as bacterial growth inhibition; type: functional
# Carbonic anhydrase 1 = Carbonic anhydrase 1 (Homo sapiens, UniProt P00915); assay: Inhibition of human CA1
# Carbonic anhydrase 2 = Carbonic anhydrase 2 (Homo sapiens, UniProt P00918); assay: Inhibition of human CA2
# Alpha glucosidase = Alpha glucosidase (Homo sapiens, UniProt O43451+P10253+P14410+Q2M2H8); assay: Inhibition of human alpha glucosidase; type: protein assay
# Acetylcholinesterase = Acetylcholinesterase (Homo sapiens, UniProt P22303); assay: Inhibition of human AchE
# TF-1 = assay: Anticancer activity against human TF-1 cells assessed as cell growth inhibition; type: functional, cell-based
# HepG2 [24] = assay: Anticancer activity against human HepG2 assessed as IL-6 induced luciferase activity at 50 uM relative to control; type: functional
# HepG2 [25] = assay: Anticancer activity against human HepG2 assessed as IL-6 induced luciferase activity; type: functional, cell-based
# [26] = tested on: Mycobacterium tuberculosis; assay: Antimycobacterial activity against Mycobacterium tuberculosis H37Rv strain assessed as bacterial growth inhibition incubated for 18 to 24 hrs; type: functional; conditions: time 18-24 hrs
# Staphylococcus aureus [27] = assay: Antibacterial activity against Staphylococcus aureus assessed as bacterial growth inhibition incubated for 24 hrs; type: functional
# Enterococcus faecium = assay: Antibacterial activity against Linezolid resistant Enterococcus faecium assessed as bacterial growth inhibition incubated for 24 hrs; type: functional
# Enterococcus faecalis = assay: Antibacterial activity against Linezolid resistant Enterococcus faecalis assessed as bacterial growth inhibition incubated for 24 hrs; type: functional
# Clostridioides difficile [28] = assay: Antibacterial activity against Clostridium difficile ATCC 43255 strain assessed as bacterial growth inhibition incubated for 48 hrs by agar dilution method; type: functional
# Clostridioides difficile [29] = assay: Antibacterial activity against Clostridium difficile ATCC 43596 strain assessed as bacterial growth inhibition incubated for 48 hrs by agar dilution method; type: functional
# Clostridioides difficile [30] = assay: Antibacterial activity against Clostridium difficile NAP1/027/BI-type strain 2009155 assessed as bacterial growth inhibition incubated for 48 hrs by agar dilution method; type: functional
# Clostridioides difficile [31] = assay: Antibacterial activity against Clostridium difficile NCTC 11223 strain assessed as bacterial growth inhibition incubated for 48 hrs by agar dilution method; type: functional
# Clostridioides difficile [32] = assay: Antibacterial activity against Clostridium difficile 2004118 strain assessed as bacterial growth inhibition incubated for 48 hrs by agar dilution method; type: functional
# Chain of Carbonic anhydrase 1 (P00915 whole entry): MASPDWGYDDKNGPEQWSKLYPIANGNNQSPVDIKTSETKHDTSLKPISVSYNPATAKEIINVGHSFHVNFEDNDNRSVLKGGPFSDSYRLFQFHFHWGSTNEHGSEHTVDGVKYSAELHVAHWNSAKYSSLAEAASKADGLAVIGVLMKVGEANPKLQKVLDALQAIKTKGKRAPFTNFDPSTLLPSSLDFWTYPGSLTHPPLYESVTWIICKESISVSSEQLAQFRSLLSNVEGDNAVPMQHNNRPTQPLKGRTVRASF
# Chain of Acetylcholinesterase (P22303 whole entry): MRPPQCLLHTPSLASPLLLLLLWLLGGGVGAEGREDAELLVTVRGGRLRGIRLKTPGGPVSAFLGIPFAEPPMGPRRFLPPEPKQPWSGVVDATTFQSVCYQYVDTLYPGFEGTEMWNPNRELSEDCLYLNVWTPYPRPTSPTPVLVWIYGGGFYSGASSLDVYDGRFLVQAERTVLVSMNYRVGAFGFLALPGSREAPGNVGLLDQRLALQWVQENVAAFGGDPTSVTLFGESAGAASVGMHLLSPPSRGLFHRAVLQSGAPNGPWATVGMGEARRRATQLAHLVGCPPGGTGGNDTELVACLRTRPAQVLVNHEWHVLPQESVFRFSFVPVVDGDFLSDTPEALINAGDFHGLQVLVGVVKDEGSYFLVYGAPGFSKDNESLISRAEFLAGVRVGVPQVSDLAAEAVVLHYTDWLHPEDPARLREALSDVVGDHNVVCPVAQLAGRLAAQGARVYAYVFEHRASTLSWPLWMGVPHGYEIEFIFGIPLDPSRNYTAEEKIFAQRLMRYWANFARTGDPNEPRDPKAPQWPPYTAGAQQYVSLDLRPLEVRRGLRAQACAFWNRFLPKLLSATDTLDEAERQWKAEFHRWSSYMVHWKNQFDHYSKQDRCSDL
smiles,measurement,setting,value
CC(=O)NC[C@H]1CN(c2ccc(-c3ccc(-c4csc(N)n4)cc3)c(F)c2)C(=O)O1,MIC90,[1],0.9 µM
CC[C@H](NC(=O)[C@H]1CN(c2ccc(C(=N)N)cc2)C(=O)O1)c1cccc2ccccc12,CLH,[2],2.4 mL/min/g
same,half-life,[3],> 3 h
same,half-life,[4],> 3 h
same,CLH,[5],3.1 mL/min/g
CCOc1nc(-c2ccc(N3C[C@H](CNC(C)=O)OC3=O)cc2F)cs1,MIC90,[1],2.6 µM
CC(C)C[C@@H](NC(=O)OC1c2ccccc2-c2ccccc21)C(=O)N[C@@H](Cc1ccccc1)[C@H]1CN(c2ccc(N3CCOCC3)c(F)c2)C(=O)O1,MIC90,[1],2.6 µM
CN[C@H](CC(C)C)C(=O)N[C@H]1C(=O)N[C@@H](CC(N)=O)C(=O)N[C@H]2C(=O)N[C@H]3C(=O)N[C@H](C(=O)N[C@H](C(=O)O)c4cc(O)cc(O)c4-c4cc3ccc4O)[C@H](O)c3ccc(c(Cl)c3)Oc3cc2cc(c3O[C@@H]2O[C@H](CO)[C@@H](O)[C@H](O)[C@H]2O[C@H]2C[C@](C)(N)[C@H](O)[C@H](C)O2)Oc2ccc(cc2Cl)[C@H]1O [VANCOMYCIN],survival at 50 mg/kg,Clostridioides difficile [6],50%
Cc1ncc([N+](=O)[O-])n1CCO [METRONIDAZOLE],survival at 50 mg/kg,Clostridioides difficile [6],0%
O=C(OC[C@H]1CN(c2ccc(N3CCOCC3)nc2)C(=O)O1)C1CCCCC1,Time,Metaphire posthuma [7],3.6 min
same,Survival,Metaphire posthuma [8],8.1 min
CC(C)c1ccc2c(c1)CCC1[C@](C)(C(=O)OCC3CN(c4ccc(F)cc4)C(=O)O3)CCC[C@]21C (some centres undefined),IC50,MGC-803,3.82 µM
same,IC50,NCI-H460,3.82 µM
same,IC50,L02 [9],> 100 µM
same,IC50,CNE-2,3.82 µM
same,IC50,SK-OV-3,3.82 µM
O=C1O[C@@H](Cn2ccnn2)CN1c1ccc(N2CCOCC2)c(F)c1,MIC90,[10],1.3 µM
C[C@@H]1[C@@H](c2ccc(F)cc2)OC(=O)N1c1cc(C#N)cc(C#N)c1,inhibition,[11],66%
same,IC50,[12],0.0015 µM
same,inhibition,[13],74%
COc1ccccc1-c1ccc([C@H](C)Nc2cncc(N3C(=O)OC[C@@H]3C(C)C)n2)cc1,IC50,Kallikrein-6,0.00251 µM
O=C(COP(=O)(O)O)N1CCN(c2ccc(-c3ccc(N4C[C@H](Cn5ccnn5)OC4=O)cc3F)cn2)C=N1,AUClast,[14],5.08 mg/h/L
CCCCCCC(=O)N(O)C[C@H]1CN(c2ccc(N3CCOCC3)c(F)c2)C(=O)O1,IC50,[15],0.7 µM
same,IC50,[16],0.9 µM
CC(=O)NC[C@H]1CN(c2ccc(N3C[C@H]4C[C@@H](O)C[C@H]4C3)c(F)c2)C(=O)O1,MIC90,[17],0.6 µM
O=C(NCC(=O)N1CCN(c2ccc(N3C[C@H](Cn4ccnn4)OC3=O)cc2F)CC1)c1cccs1,TD50,[18],> 500 mg/kg
same,ED50,Mus musculus,90 mg/kg
same,ED50,Rattus norvegicus,34.5 mg/kg
CCN(CC)C(=O)/C=C1/OC(=O)N(Cc2ccccc2)C1(C)C,IC50,MCF7,31.1 µM
same,IC50,HeLa,17.7 µM
O=C1CC2CN(c3ccc(N4C[C@H](Cn5ccnn5)OC4=O)cc3F)CC2C1 (some centres undefined),MIC90,[17],1.2 µM
CC(=O)NC[C@H]1CN(c2ccc(-n3cc(-c4ccccn4)cn3)c(F)c2)C(=O)O1,IC50,L02 [19],50 µM
same,MIC,Staphylococcus aureus [20],0.5 µg/mL
same,MIC,Staphylococcus aureus [21],1 µg/mL
same,IC50,HEK293,> 25 µM
COc1cc(COc2ccccc2C2(C)CN(CC(=O)O)C(=O)O2)cc(OC)c1OC (centres undefined),IC50,[22],3.19 µM
COc1ccc(C2CC3(CN(CC(=O)O)C(=O)O3)c3cc(Br)ccc3O2)cc1 (centres undefined),IC50,[22],0.65 µM
CC(=O)NC[C@H]1CN(c2ccc(N3CCN(c4ccc5nccn5n4)CC3)c(F)c2)C(=O)O1,MIC90,[23],8 µM
same,MIC90,Mycobacteroides chelonae,8 µM
same,MIC90,[1],1.1 µM
same,MIC90,Mycobacterium kansasii,1 µM
CC1(C)O[C@@H]2[C@@H](O)[C@H]3NC(=O)O[C@H]3C[C@@H]2O1,IC50,Carbonic anhydrase 1,45.6 µM
same,IC50,Carbonic anhydrase 2,24.8 µM
same,IC50,Alpha glucosidase,30.5 µM
same,IC50,Acetylcholinesterase,58.7 µM
C=C(CCCCC)[C@@H](O)[C@H](C)C(=O)N1C(=O)OC[C@@H]1C(C)C,IC50,TF-1,7.5 µM
same,inhibition at 50 µM,HepG2 [24],90%
same,IC50,HepG2 [25],5.9 µM
O=C(NCC(=O)N1CCN(c2ccc(N3C[C@H](Cn4ccnn4)OC3=O)cc2F)CC1)c1ccc([N+](=O)[O-])o1,MIC90,[26],0.9 µM
O=C(CO)N1CCN(c2ccc(-c3ccc(N4C[C@H](Cn5ccnn5)OC4=O)cc3F)cn2)C=N1,MIC,Staphylococcus aureus [27],< 2 µg/mL
same,AUClast,[14],85 mg/h/L
same,MIC,Enterococcus faecium,< 2 µg/mL
same,MIC,Enterococcus faecalis,< 2 µg/mL
CC(=O)NC[C@H]1CN(c2ccc(-c3cnc(-n4cncn4)nc3)c(F)c2)C(=O)O1,MIC90,Clostridioides difficile [28],0.25 µg/mL
same,survival at 50 mg/kg,Clostridioides difficile [6],100%
same,MIC90,Clostridioides difficile [29],0.25 µg/mL
same,MIC90,Clostridioides difficile [30],0.25 µg/mL
same,MIC90,Clostridioides difficile [31],0.25 µg/mL
same,MIC90,Clostridioides difficile [32],0.25 µg/mL
